Experimental data as given in patent US11492325B2, “Compounds as inhibitors of sodium channels” (Human BioMolecular Research Institute, priority 2016, dated 2022).
Structures can show the parent of a compound that is named as a salt. Where two headings read alike, the source gives them in different places.

Assays:
[1] = test system: cardiomyocytes derived from hiPSCs from a LQTS3 patient; conditions: for LQT-Fold (prolongation): cell in fold shortening column marked (prolongation)
[2] = test system: cardiomyocytes derived from hiPSCs from a LQTS3 patient; assay: cells; conditions: Homo sapiens, Cardiomyocyte
[3] = test system: normal human induced pluripotent stem cell (hiPSC) cardiomyocyte; conditions: for WT-EC50 (μM) Prolongation: AP prolongation; for WT-Fold Prolongation: APD
[4] = read-out: LQT-EC50 (μM) Shortening, LQT-3 cardiomyocytes, AP shortening
[5] = read-out: LQT-IC50 (uM)-Shortening
[6] = read-out: LQT-IC50 (prolongation)

Structure (SMILES)	LQT-Cessation Dose ([1]; LQT3 cardiomyocytes)	LQT-Fold Shortening ([1]; LQT3 cardiomyocytes)	IC50 [2, 5]	WT-Fold Prolongation ([3]; normal hiPSC cardiomyocytes)	Cessation of Beating ([3]; normal hiPSC cardiomyocytes)	WT-Prolongation Dose ([3]; normal hiPSC cardiomyocytes)	WT-EAD Dose ([3]; normal hiPSC cardiomyocytes)	other results
NC(COc1cccc2ccccc12)c1ccccc1 (stereo not drawn) [Compound 129]								LQT-Fold Shortening ([1]; LQT-3 cardiomyocytes): 1.316; LQT-Cessation Dose ([1]; LQT-3 cardiomyocytes, cessation of beating): 66 µM; EC50 [2, 4]: 0.82 µM; WT-EC50 (μM) Prolongation ([3]; WT cardiomyocytes): Does Not Prolong AP
Cc1cccc(C)c1OCC(C)NC(=O)c1ccccc1 (stereo not drawn) [Compound 54]	133 µM	1.45	57.8 µM	None	66 µM	None		
NC(COc1ccncc1)c1ccccc1 (stereo not drawn) [Compound 126]								LQT-Fold Shortening ([1]; LQT-3 cardiomyocytes): 1.281; EC50 [2, 4]: 3.82 µM; EC50 ([2]; read-out: LQT-EC50 (μM) Shortening, pyridyl derivatives): ~4 µM; WT-EC50 (μM) Prolongation ([3]; WT cardiomyocytes): Does Not Prolong AP; WT-Cessation Dose (μM) ([3]; WT cardiomyocytes, cessation of beating): No cessation of beating
Cl.NC(COc1cccc(C(F)(F)F)c1)c1ccccc1 (stereo not drawn) [Compound 81, 1-phenyl-2-(3-(trifluoromethyl)phenoxy)ethan-1-amine]	66 µM	1.539	4.07 µM	None	66 µM	None		
CC(N)COC1CCCCC1.Cl (stereo not drawn) [Compound 87]	None	1.611	34.8 µM	None	None	None		
Cc1cccc(C)c1OC[C@@H](N)C1CC1.Cl [Compound 60]		1.22	0.11 µM	2.805				LQT-Cessation Dose ([1]; human, 5 min): 200 µM; Cessation of Beating ([3]; human, 5 min): 200 µM; WT-EAD Dose ([3]; human, 5 min): 66 µM
Cc1cccc(Cl)c1OC[C@H](C)N [Compound 57, (S)-1-(2-chloro-6-methylphenoxy)propan-2-amine hydrochloride]	None	1.14	0.19 µM	3.615	None		200 µM	
C[C@H](N)COc1ccccc1.Cl [Compound 72]	None			2.93	None		133 µM	LQT-Fold (prolongation) [1]: 1.133 (prolongation); IC50 [2, 6]: 129 µM
C[C@@H](N)COc1ccccc1.Cl [Compound 71, (R)-1-phenoxypropan-2-amine hydrochloride]	None			1.997	None		200 µM	LQT-Fold (prolongation) [1]: 1.214 (prolongation); IC50 [2, 6]: 194 µM
Cc1cccc(OCC(O)c2ccccc2)c1C (stereo not drawn) [Compound 32, 2-(2,3-dimethylphenoxy)-1-phenylethanol]	66 µM	1.355	7.53 µM	None	133 µM	None		
CCCCNC(C)COc1c(C)cccc1C (stereo not drawn) [Compound 39, 1-(2,6-dimethylphenoxy)-N-butylpropan-2-amine]	66 µM	1.180	0.73 µM	3.827	133 µM		66 µM	
